Assay results from US20250064945A1 (Arvinas Operations, Inc., priority 2021, published 2025).
Counter-ions that a name gives are not always drawn.

Molecular target: T1, BRM (Homo sapiens, UniProt P51531)
T1 construct: In-Cell Western Screen of BRM Degradation in SW1573 Cells; endogenous in cells; host or cells: SW1573 cells
Experiment: Western blot / In-Cell Western screen of BRM degradation in SW1573 cells
Assay type: cell-based
Conditions: overnight (18-20 hours) treatment; for Dmax: read-out: Dmax (%) (% degraded)
Experimental: Western Blot Screen of BRM Degradation in SW1573 Cells
(§1) To assess BRM degradation (Dmax and DC50) cells were seeded at 8000/well in 96-well black/clear-bottom plates in 180 μL DMEM growth media (containing 1% pen-strep, 1% HEPES and 10% FBS) per well. Plates were incubated overnight to allow adhesion. The next morning cells were treated by adding 20 μL of 10× target compound concentration (1% DMSO) to appropriate wells and returned to incubator for overnight (18-20 hours). The final DMSO concentration was 0.1%.
For lysing, adherent cells were washed once with 100 μL of DPBS. Cells were lysed in 40 μL of 1× RIPA+HALT protease inhibitor on ice for 10 minutes and frozen until use at −80° C. Thawed lysates were cleaned by filtration in 1.2 µm filter plates, or alternatively, were spun clean at 2300 g at 4° C. for 30 minutes.
For blotting, for each Western sample 30 μL of lysate was added to 10 μL of 4×LDS sample buffer, then denatured at 95° C. for 5 minutes in the thermal cycler and placed on ice. Samples were loaded on 4-15% Tris/Glycine gels and run for 25 minutes at 250 constant volts in 1×Tris/Glycine buffer with 4 μL of ladder and 12 μL of each sample loaded for each blot. Protein was transferred from gels to NC with BioRad Turbo dry-transfer unit with the Turbo/midi default program. All blots were rinsed with ddH2O and blocked for 1 hour at room temperature in 5% BSA in TBST (0.1%) on rocker. Blots were exposed to primary antibody in 5% BSA in TBST (0.1%) overnight at 4° C. on rocker (1:1000 for BRM (Cell Signaling Tech. cat #11966) and 1:2000 for alpha-tubulin (Cell Signaling Tech. cat #3873), a control protein. Blot was washed with TBST (0.1%) three times for 5 minutes on rocker at room temperature. Secondary antibody was added, and blots were incubated on a room temperature rocker for 1 hour with 1:18,000 anti-rabbit-HRP and/or anti-mouse-HRP in 5% BSA in TBST (0.1%). Blots were washed three times in TBST (0.1%) for 5 minutes at room temperature on the rocker. Signal was developed with Femto Maximum Sensitivity substrate for 4 minutes and blots read on ChemiDoc™.
In-Cell Western Screen of BRM Degradation in SW1573 Cells
as §1, with “DC50),” for “DC50)”, “10×” for “10× target”, “compound” for “compound concentration”
For processing, the plates were removed from incubator, the media was removed, and immediately 200 μL of cold (4° C.) DPBS was added to all wells. DPBS was then removed, and 50 μL of 4% paraformaldehyde (PFA) in DPBS (4° C.) was added to all wells, and the plates were incubated at room temperature for 20 minutes. PFA was then removed, and 200 μL of TBS-T containing 0.5% Triton X-100 was added to all wells, and the plates were incubated at room temperature for 30 minutes. TBS-T containing 0.5% Triton X-100 was then removed, and 50 μL of Li-Cor blocking solution was added, and the plates were incubated at room temperature for a minimum of one hour. The blocking solution was removed, and 50 μL of Li-Cor blocking solution containing primary antibody cocktail was added (1:1000 for BRM (Cell Signaling Tech. cat #11966) and 1:2000 for alpha-tubulin (Sigma cat #T6074), a control protein. Plates were then placed in cold room until the next day.
The next day plates were washed three times with TBS-T, 200 μL per well. Fifty […] of secondary antibody cocktail in LI-COR blocking solution (anti-rabbit_800 nm and anti-mouse_680 nm) was added to all wells (diluted 1:5000). The plates were incubated at room temperature for at least one hour while protected from light. The plates were washed twice with TBS-T, 200 μL per well. […]

T1 sequence (P51531 whole entry): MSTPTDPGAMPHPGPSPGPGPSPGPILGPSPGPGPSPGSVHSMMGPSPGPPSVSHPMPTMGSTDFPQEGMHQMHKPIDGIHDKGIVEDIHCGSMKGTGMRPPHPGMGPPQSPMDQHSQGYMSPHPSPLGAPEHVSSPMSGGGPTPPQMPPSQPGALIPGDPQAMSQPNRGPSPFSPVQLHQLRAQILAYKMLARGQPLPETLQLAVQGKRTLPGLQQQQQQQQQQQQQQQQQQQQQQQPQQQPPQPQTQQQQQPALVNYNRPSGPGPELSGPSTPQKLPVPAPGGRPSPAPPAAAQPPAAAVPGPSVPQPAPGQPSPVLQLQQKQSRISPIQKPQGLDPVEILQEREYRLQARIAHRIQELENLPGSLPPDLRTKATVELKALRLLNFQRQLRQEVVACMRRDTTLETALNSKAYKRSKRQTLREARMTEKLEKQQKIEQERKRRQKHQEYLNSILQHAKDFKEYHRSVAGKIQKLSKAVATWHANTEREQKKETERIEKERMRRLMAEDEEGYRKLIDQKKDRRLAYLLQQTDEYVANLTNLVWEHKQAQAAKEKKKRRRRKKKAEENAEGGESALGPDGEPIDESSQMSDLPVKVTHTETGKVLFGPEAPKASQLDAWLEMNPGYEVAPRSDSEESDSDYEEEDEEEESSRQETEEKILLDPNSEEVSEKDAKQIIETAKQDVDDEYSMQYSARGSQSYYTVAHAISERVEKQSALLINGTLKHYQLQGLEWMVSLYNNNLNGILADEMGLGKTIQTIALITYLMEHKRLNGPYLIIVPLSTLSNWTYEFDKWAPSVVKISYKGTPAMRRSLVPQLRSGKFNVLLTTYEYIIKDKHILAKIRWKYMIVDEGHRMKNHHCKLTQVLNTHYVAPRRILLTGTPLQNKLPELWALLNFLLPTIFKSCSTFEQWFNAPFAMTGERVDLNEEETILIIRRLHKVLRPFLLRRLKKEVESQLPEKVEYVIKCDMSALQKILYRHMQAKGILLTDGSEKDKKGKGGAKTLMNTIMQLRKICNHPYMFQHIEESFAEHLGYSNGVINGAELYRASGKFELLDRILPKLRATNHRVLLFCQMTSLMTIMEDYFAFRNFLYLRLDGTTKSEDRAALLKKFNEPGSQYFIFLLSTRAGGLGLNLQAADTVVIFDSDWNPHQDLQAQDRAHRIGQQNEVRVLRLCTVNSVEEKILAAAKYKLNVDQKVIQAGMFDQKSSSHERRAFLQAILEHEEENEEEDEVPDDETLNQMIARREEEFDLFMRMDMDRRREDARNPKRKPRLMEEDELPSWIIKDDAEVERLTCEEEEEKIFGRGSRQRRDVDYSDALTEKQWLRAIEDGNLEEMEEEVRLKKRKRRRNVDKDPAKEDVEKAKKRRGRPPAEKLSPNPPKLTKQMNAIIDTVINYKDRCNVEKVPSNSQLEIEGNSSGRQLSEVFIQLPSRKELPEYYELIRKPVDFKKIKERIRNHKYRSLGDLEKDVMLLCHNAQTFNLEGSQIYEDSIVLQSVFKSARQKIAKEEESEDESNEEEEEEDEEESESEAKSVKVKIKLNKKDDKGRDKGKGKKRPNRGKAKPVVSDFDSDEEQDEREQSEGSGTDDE

| Structure (SMILES) | DC50 [nM] | Dmax [%] |
| --- | --- | --- |
| CC(C)[C@@H](C(=O)N1C[C@H](O)C[C@H]1C(=O)N[C@@H](C)c1ccc(C#N)cc1)c1cc(OCCN2CCC(O[C@H]3C[C@@H](Oc4cc(N5CCN(c6cc(-c7ccccc7O)nnc6N)CC56COC6)ccn4)C3)CC2)no1 [Compound 24, (2S,4R)-N-[(1S)-1-(4-cyanophenyl)ethyl]-4-hydroxy-1-[(2R)-3-methyl-2-[3-(2-{4-[(1r,3r)-3-[(4-{8-[3-amino-6-(2-hydroxyphenyl)pyridazin-4-yl]-2-oxa-5,8-diazaspiro[3.5]nonan-5-yl}pyridin-2-yl)oxy]cyclobutoxy]piperidin-1-yl}ethoxy)-1,2-oxazol-5-yl]butanoyl]pyrrolidine-2-carboxamide] | < 2.5 | > 75 |
| Cc1ncsc1-c1ccc([C@H](C)NC(=O)[C@@H]2C[C@@H](O)CN2C(=O)[C@@H](c2cc(N3CCC(CN4CCC(O[C@H]5C[C@H](n6cnc(CN7C8CCC7CN(c7cc(-c9ccccc9O)nnc7N)C8)c6)C5)CC4)CC3)no2)C(C)C)cc1 [Compound 3, (2S,4R)-4-hydroxy-N-[(1S)-1-[4-(4-methyl-1,3-thiazol-5-yl)phenyl]ethyl]-1-[(2R)-3-methyl-2-{3-[4-({4-[(1r,3r)-3-[4-({3-[3-amino-6-(2-hydroxyphenyl)pyridazin-4-yl]-3,8-diazabicyclo[3.2.1]octan-8-yl}methyl)-1H-imidazol-1-yl]cyclobutoxy]piperidin-1-yl}methyl)piperidin-1-yl]-1,2-oxazol-5-yl}butanoyl]pyrrolidine-2-carboxamide] | < 2.5 | > 75 |
| Cc1ncsc1-c1ccc([C@H](C)NC(=O)[C@@H]2C[C@@H](O)CN2C(=O)[C@@H](c2cc(N3CCC(CN4CCC(O[C@H]5C[C@@H](N6CCC(CC#Cc7cn8cc(-c9ccccc9O)nc8nc7N)CC6)C5)CC4)CC3)no2)C(C)C)cc1 [Compound 36, formate] | < 2.5 | > 75 |
| Cc1ncsc1-c1ccc([C@H](C)NC(=O)[C@@H]2C[C@@H](O)CN2C(=O)[C@@H](c2cc(N3CCC(O[C@H]4C[C@H](OCC#Cc5cn6cc(-c7ccccc7O)nc6nc5N)C4)CC3)no2)C(C)C)cc1 [Compound 35, formate] | 2.5 to 10 | > 75 |
| Cc1ncsc1-c1ccc([C@H](C)NC(=O)[C@@H]2C[C@@H](O)CN2C(=O)[C@@H](c2cc(N3CCC(CN4CCC(O[C@H]5C[C@H](OCC#Cc6cn7cc(-c8ccccc8O)nc7nc6N)C5)CC4)CC3)no2)C(C)C)cc1 [Compound 29] | < 2.5 | > 75 |
| CC(C)[C@@H](C(=O)N1C[C@H](O)C[C@H]1C(=O)N[C@@H](C)c1ccc(-c2ccnn2C)cc1)c1cc(OCCN2CCN(Cc3ccc(C/C=C/c4cn5cc(-c6ccccc6O)nc5nc4N)cc3)CC2)no1 [Compound 46, (2S,4R)-1-[(2R)-2-(3-{2-[4-({4-[(2E)-3-[7-amino-2-(2-hydroxyphenyl)imidazo[1,2-a]pyrimidin-6-yl]prop-2-en-1-yl]phenyl}methyl)piperazin-1-yl]ethoxy}-1,2-oxazol-5-yl)-3-methylbutanoyl]-4-hydroxy-N-[(1S)-1-[4-(1-methyl-1H-pyrazol-5-yl)phenyl]ethyl]pyrrolidine-2-carboxamide] | 2.5 to 10 | > 75 |
| CC(C)[C@@H](C(=O)N1C[C@H](O)C[C@H]1C(=O)N[C@@H](C)c1ccc(-c2ccnn2C)cc1)c1cc(N2CCC(CN3CCC(O[C@H]4C[C@H](OCC#Cc5cn6cc(-c7ccccc7O)nc6nc5N)C4)CC3)CC2)no1 [Compound 32] | < 2.5 | > 75 |
| Cc1ncsc1-c1ccc([C@H](C)NC(=O)[C@@H]2C[C@@H](O)CN2C(=O)[C@@H](c2cc(N3CCC(CN4CCC(O[C@H]5C[C@H](N6CCC(CC#Cc7cn8cc(-c9ccccc9O)nc8nc7N)CC6)C5)CC4)CC3)no2)C(C)C)cc1 [Compound 37, (2S,4R)-4-hydroxy-N-[(1S)-1-[4-(4-methyl-1,3-thiazol-5-yl)phenyl]ethyl]-1-[(2R)-3-methyl-2-{3-[4-({4-[(1r,3r)-3-(4-{3-[7-amino-2-(2-hydroxyphenyl)imidazo[1,2-a]pyrimidin-6-yl]prop-2-yn-1-yl}piperidin-1-yl)cyclobutoxy]piperidin-1-yl}methyl)piperidin-1-yl]-1,2-oxazol-5-yl}butanoyl]pyrrolidine-2-carboxamide] | < 2.5 | > 75 |
| CC(C)[C@@H](C(=O)N1C[C@H](O)C[C@H]1C(=O)N[C@@H](C)c1ccc(C#N)cc1)c1cc(OCCN2CCN(CCOc3cc(N4CCN(c5cc(-c6ccccc6O)nnc5N)CC45COC5)ccn3)CC2)no1 [Compound 19, (2S,4R)-1-[(2R)-2-{3-[2-(4-{2-[(4-{8-[3-amino-6-(2-hydroxyphenyl)pyridazin-4-yl]-2-oxa-5,8-diazaspiro[3.5]nonan-5-yl}pyridin-2-yl)oxy]ethyl}piperazin-1-yl)ethoxy]-1,2-oxazol-5-yl}-3-methylbutanoyl]-N-[(1S)-1-(4-cyanophenyl)ethyl]-4-hydroxypyrrolidine-2-carboxamide] | 2.5 to 10 | > 75 |
| CC(C)[C@@H](C(=O)N1C[C@H](O)C[C@H]1C(=O)N[C@@H](C)c1ccc(-c2c(F)cnn2C)cc1)c1cc(N2CCC(CN3CCC(O[C@H]4C[C@H](C#Cc5cn6cc(-c7ccccc7O)nc6nc5N)C4)CC3)CC2)no1 [Compound 39, (2S,4R)-N-[(1S)-1-[4-(4-fluoro-1-methyl-1H-pyrazol-5-yl)phenyl]ethyl]-4-hydroxy-1-[(2R)-3-methyl-2-{3-[4-({4-[(1r,3r)-3-{2-[7-amino-2-(2-hydroxyphenyl)imidazo[1,2-a]pyrimidin-6-yl]ethynyl}cyclobutoxy]piperidin-1-yl}methyl)piperidin-1-yl]-1,2-oxazol-5-yl}butanoyl]pyrrolidine-2-carboxamide] | < 2.5 | > 75 |
| Cc1ncsc1-c1ccc([C@H](C)NC(=O)[C@@H]2C[C@@H](O)CN2C(=O)[C@@H](c2cc(N3CCC(CN4CCC5(CC4)CC(N4CCO[C@@H](CN6CCOC7(CCN(c8cc(-c9ccccc9O)nnc8N)CC7)C6)C4)C5)CC3)no2)C(C)C)cc1 [Compound 26, (2S,4R)-1-[(2R)-2-{3-[4-({2-[(2S)-2-({9-[3-amino-6-(2-hydroxyphenyl)pyridazin-4-yl]-1-oxa-4,9-diazaspiro[5.5]undecan-4-yl}methyl)morpholin-4-yl]-7-azaspiro[3.5]nonan-7-yl}methyl)piperidin-1-yl]-1,2-oxazol-5-yl}-3-methylbutanoyl]-4-hydroxy-N-[(1S)-1-[4-(4-methyl-1,3-thiazol-5-yl)phenyl]ethyl]pyrrolidine-2-carboxamide] | < 2.5 | > 75 |
| Cc1cnn(C)c1-c1ccc([C@H](C)NC(=O)[C@@H]2C[C@@H](O)CN2C(=O)[C@@H](c2cc(N3CCC(CN4CCC(O[C@H]5C[C@H](C#Cc6cn7cc(-c8ccccc8O)nc7nc6N)C5)CC4)CC3)no2)C(C)C)cc1 [Compound 40, (2S,4R)-N-[(1S)-1-[4-(1,4-dimethyl-1H-pyrazol-5-yl)phenyl]ethyl]-4-hydroxy-1-[(2R)-3-methyl-2-{3-[4-({4-[(1r,3r)-3-{2-[7-amino-2-(2-hydroxyphenyl)imidazo[1,2-a]pyrimidin-6-yl]ethynyl}cyclobutoxy]piperidin-1-yl}methyl)piperidin-1-yl]-1,2-oxazol-5-yl}butanoyl]pyrrolidine-2-carboxamide] | 2.5 to 10 | > 75 |
